Experimental data: the supplement of paper PMC11061612

Columns and labels:
Assay in all cases: Bliss excess, mean over the matrix (fraction); higher = more synergy
[1] = system: 8505C (Thyroid Gland Carcinoma)
Method in brief: (§1)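 Bliss excess equals the observed combination effect minus the expected value EA + EB − EA·EB, where EA and EB are the effects of each agent alone. Combination Emax is the second-highest inhibition within the matrix. Inhibition was scaled from CellTiter-Glo 2.0 luminescence, with 0 set by vehicle wells and 1 by blank wells, after 72 hours of two-drug dosing of cells plated in 1536-well plates.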

[2] = system: T-T (Esophageal Squamous Cell Carcinoma)
Method in brief: as §1

[3] = system: KU812 (Chronic Myelogenous Leukemia)
Method in brief: as §1

[4] = system: MN-60 (B-Lymphoblastic Leukemia)
Method in brief: as §1

[5] = system: ESO51 (Esophageal Adenocarcinoma)
Method in brief: as §1

[6] = system: IM-95 (Gastric Carcinoma)
Method in brief: as §1

[7] = system: KYSE-270 (Esophageal Squamous Cell Carcinoma)
Method in brief: as §1

[8] = system: KP-3 (Pancreatic Carcinoma)
Method in brief: as §1

[9] = system: NCI-H520 (Squamous Cell Lung Carcinoma)
Method in brief: as §1

[10] = system: MOG-G-CCM (Low Grade Glioma)
Method in brief: as §1

NCI-H2731 (Mesothelioma) = system: NCI-H2731 (Mesothelioma)
Method in brief: as §1

[11] = system: NCI-H661 (Non-Small Cell Lung Carcinoma)
Method in brief: as §1

[12] = system: COR-L279 (Small Cell Lung Carcinoma)
Method in brief: as §1

[13] = system: KY821 (Acute Myeloid Leukemia)
Method in brief: as §1

[14] = system: NCI-H929 (Plasma Cell Myeloma)
Method in brief: as §1

G-361 (Melanoma) = system: G-361 (Melanoma)
Method in brief: as §1

[15] = system: SU-DHL-5 (B-Cell Non-Hodgkin's Lymphoma)
Method in brief: as §1

[16] = system: SUP-B15 (B-Lymphoblastic Leukemia)
Method in brief: as §1

[17] = system: RPMI-8226 (Plasma Cell Myeloma)
Method in brief: as §1

[18] = system: PC-3 (Prostate Carcinoma)
Method in brief: as §1

Row | Compound | Bliss excess [1] | Bliss excess [2] | Bliss excess [3] | Bliss excess [4] | Bliss excess [5] | Bliss excess [6] | Bliss excess [7] | Bliss excess [8] | Bliss excess [9] | Bliss excess [10] | Bliss excess (NCI-H2731 (Mesothelioma)) | Bliss excess [11] | Bliss excess [12] | Bliss excess [13] | Bliss excess [14] | Bliss excess (G-361 (Melanoma)) | Bliss excess [15] | Bliss excess [16] | Bliss excess [17] | Bliss excess [18]
1 | CCc1c2c(nc3ccc(O)cc13)-c1cc3c(c(=O)n1C2)COC(=O)[C@]3(O)CC [SN-38] + O=C(c1cc(Cc2n[nH]c(=O)c3ccccc23)ccc1F)N1CCN(C(=O)C2CC2)CC1 [Olaparib] (first compound max 0.3 µM, 7x7, partner max 10 µM) | 0.0498 | -0.0243 | 0.0053 | 0.0066 | -0.0199 | 0.036 | 0.0159 | -0.0338 | 0.0654 | 0.099 | 0.0324 | 0.0696 | 0.0742 | 0.0503 | 0.0505 | 0.0322 | 0.065 |  |  | 
2 | CS(=O)(=O)CCNCc1ccc(-c2ccc3ncnc(Nc4ccc(OCc5cccc(F)c5)c(Cl)c4)c3c2)o1 [Lapatinib] + Cn1cnc2c(F)c(Nc3ccc(Br)cc3Cl)c(C(=O)NOCCO)cc21 [Selumetinib] (first compound max 10 µM, 7x7, partner max 10 µM) |  | 0.0514 | 0.0082 | -0.0751 |  |  | -0.0187 | 0.0488 | -0.034 | -0.0433 | -0.012 |  | -0.0224 |  | 0.0271 |  |  |  |  | 
3 | C=CCn1c(=O)c2cnc(Nc3ccc(N4CCN(C)CC4)cc3)nc2n1-c1cccc(C(C)(C)O)n1 [AZD1775] + O=C(c1cc(Cc2n[nH]c(=O)c3ccccc23)ccc1F)N1CCN(C(=O)C2CC2)CC1 [Olaparib] (first compound max 1 µM, partner max 10 µM) |  | -0.002 | -0.039 | -0.0143 | -0.0917 | -0.0047 | -0.0166 | -0.0118 | -0.0057 | -0.0542 | -0.0438 | -0.0179 | -0.0572 | 0.019 | -0.0525 | -0.0217 | 0.0215 | -0.0148 | -0.0366 | -0.0663
4 | CN(CCO)CC[C@H](CSc1ccccc1)Nc1ccc(S(=O)(=O)NC(=O)c2ccc(N3CCC([C@@H](O)c4ccccc4-c4ccc(Cl)cc4)CC3)cc2)cc1S(=O)(=O)C(F)(F)F [AZD4320] + Cc1cc2ncnn2cc1Nc1ncc2c(n1)n(C1CCOCC1)c(=O)n2C [AZD7648] (first compound max 1 µM, 7x7, partner max 10 µM) | -0.0315 | -0.0069 |  | -0.0177 | -0.0168 | -0.0645 | -0.0197 | -0.0471 | -0.0691 | -0.0387 | -0.0424 | -0.0289 | -0.0057 | 0.0393 | 0.0134 | -0.0444 | -0.0099 | -0.0072 | 0.0536 | -0.0432
5 | COc1nnc2ccc(N3CCC(c4ccc(OCCN5CCN(C)C(=O)[C@H]5C)cc4)CC3)nn12 [AZD5153] + CN(CC[C@H](CSC1=CC=CC=C1)NC2=C(C=C(C=C2)S(=O)(=O)NC(=O)C3=CC=C(C=C3)N4CCC(CC4)[C@H](C5=CC=CC=C5C6=CC=C(C=C6)Cl)O)S(=O)(=O)C(F)(F)F)CCO [AZD4320] (first compound max 1 µM, 7x7, partner max 1 µM) | 0.0185 |  |  |  | -0.0079 | -0.0568 |  |  |  |  |  | 0.0102 |  | 0.0111 |  | 0.0314 | -0.0155 | -0.0077 | -0.0027 | 0.0691
6 | Cc1c2c(nn1C)CSCc1cc(n(C)n1)CSc1cc(c3ccccc3c1)OCCCc1c(C(=O)O)n(C)c3c-2c(Cl)ccc13 [AZD5991] + CN(C)CCCOc1ccc(-c2ccc3ncc4c(c3c2)n(C2CCOCC2)c(=O)n4C)cn1 [AZD0156] (first compound max 1 µM, 7x7, partner max 1 µM) | -0.137 | -0.0025 | -0.0788 | 0.0047 | 0.0193 | -0.0198 | 0.0347 | 0.0077 | -0.0011 | -0.0067 | -0.0444 | -0.0054 | -0.0051 | -0.0327 | -0.0121 | 0.0371 | -0.0041 | -0.0117 | 0.0147 | 
7 | C[C@@H](c1ccc2nccn2c1)n1nnc2ncc(-c3cnn(C)c3)nc21 [Savolitinib] + CN(CC[C@H](CSC1=CC=CC=C1)NC2=C(C=C(C=C2)S(=O)(=O)NC(=O)C3=CC=C(C=C3)N4CCC(CC4)[C@H](C5=CC=CC=C5C6=CC=C(C=C6)Cl)O)S(=O)(=O)C(F)(F)F)CCO [AZD4320] (first compound max 1 µM, 7x7, partner max 1 µM) | -0.0719 |  |  |  | -0.0038 | -0.0477 |  |  |  |  |  | -0.0669 |  | 0.0059 |  | -0.0621 | -0.0451 | -0.0182 | -0.0379 | -0.0418
